Test results as given in patent publication US12448389B2, “BRM targeting compounds and associated methods of use” (Prelude Therapeutics Incorporated, priority 2020, dated 2025).

Assays:
[1] = target: T1, SMARCA2-HiBiT (Homo sapiens, UniProt P51531); assay: SMARCA2 HiBiT degradation assay in HeLa cells; type: cell-based; settings: 18 hours incubation; for DC50: read-out: HeLa_HiBit-SM2 DC50; for Dmax: HeLa, read-out: HeLa-HiBit-SM2 Dmax (%)
T1 construct: SMARCA2-HiBiT knock-in Hela monoclonal cell (CS302366); host or cells: HeLa monoclonal knock-in line (CRISPR HiBiT knock-in at the endogenous locus, heterozygous)
T1 sequence (P51531 whole entry): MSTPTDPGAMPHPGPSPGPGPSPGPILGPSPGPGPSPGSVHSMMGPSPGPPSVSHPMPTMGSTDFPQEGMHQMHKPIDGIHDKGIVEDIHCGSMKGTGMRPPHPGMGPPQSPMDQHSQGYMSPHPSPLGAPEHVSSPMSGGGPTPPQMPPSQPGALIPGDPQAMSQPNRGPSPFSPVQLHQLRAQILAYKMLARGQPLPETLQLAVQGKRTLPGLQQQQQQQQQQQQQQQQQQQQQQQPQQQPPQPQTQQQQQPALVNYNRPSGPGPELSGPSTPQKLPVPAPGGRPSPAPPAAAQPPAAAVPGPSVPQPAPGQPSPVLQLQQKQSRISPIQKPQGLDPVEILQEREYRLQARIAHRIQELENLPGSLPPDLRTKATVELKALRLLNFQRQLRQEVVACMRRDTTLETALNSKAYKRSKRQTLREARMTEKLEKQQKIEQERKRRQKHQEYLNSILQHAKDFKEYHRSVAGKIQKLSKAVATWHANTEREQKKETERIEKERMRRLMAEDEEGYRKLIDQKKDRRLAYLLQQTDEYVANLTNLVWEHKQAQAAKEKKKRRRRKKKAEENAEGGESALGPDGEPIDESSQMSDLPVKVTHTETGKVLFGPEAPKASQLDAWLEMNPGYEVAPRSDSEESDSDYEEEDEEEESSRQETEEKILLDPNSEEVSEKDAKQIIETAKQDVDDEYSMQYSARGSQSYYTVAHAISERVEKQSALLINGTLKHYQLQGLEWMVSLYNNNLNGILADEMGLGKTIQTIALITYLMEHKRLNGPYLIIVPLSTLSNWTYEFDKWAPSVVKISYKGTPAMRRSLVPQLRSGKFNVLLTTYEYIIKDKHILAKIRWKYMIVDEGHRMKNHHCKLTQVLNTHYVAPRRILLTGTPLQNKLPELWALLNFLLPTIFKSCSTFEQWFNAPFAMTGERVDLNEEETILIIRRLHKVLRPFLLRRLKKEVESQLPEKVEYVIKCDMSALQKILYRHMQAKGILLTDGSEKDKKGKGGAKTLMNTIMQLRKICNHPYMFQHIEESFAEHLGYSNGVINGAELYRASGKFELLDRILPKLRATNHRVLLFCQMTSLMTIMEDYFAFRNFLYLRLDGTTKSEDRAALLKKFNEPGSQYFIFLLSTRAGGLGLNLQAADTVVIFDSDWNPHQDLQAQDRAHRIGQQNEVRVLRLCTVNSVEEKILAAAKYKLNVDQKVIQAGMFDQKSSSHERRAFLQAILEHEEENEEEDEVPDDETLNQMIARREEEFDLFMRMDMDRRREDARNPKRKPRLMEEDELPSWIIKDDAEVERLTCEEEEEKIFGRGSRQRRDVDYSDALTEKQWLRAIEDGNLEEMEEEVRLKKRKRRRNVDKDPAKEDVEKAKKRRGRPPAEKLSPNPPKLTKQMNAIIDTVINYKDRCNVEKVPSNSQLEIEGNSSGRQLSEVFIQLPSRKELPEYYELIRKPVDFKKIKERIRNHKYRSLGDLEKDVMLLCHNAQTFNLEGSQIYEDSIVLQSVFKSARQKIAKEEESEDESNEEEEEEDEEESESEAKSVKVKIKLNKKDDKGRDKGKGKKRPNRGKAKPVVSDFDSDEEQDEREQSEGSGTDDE
Summary of the method: (§1)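 HeLa monoclonal lines with heterozygous HiBiT knock-in were seeded at 2500 cells/well in EMEM with 10% FBS and treated with compound for 18 h at 37 °C. Remaining tagged protein was measured by Nano-Glo HiBiT lytic luminescence after 30–60 min at RT, and values came from curve fitting.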

[2] = target: T2, SMARCA4-HiBiT (Homo sapiens, UniProt P51532); assay: SMARCA4 HiBiT degradation assay in HeLa cells; type: cell-based; settings: 18 hours incubation; for DC50: read-out: HeLa-HiBit-SM4 DC50; for Dmax: HeLa, read-out: HeLa-HiBit-SM4 Dmax (%)
T2 construct: SMARCA4-HiBiT knock-in Hela monoclonal cell (CS3023226); host or cells: HeLa monoclonal knock-in line (CRISPR HiBiT knock-in at the endogenous locus, heterozygous)
T2 sequence (P51532 whole entry): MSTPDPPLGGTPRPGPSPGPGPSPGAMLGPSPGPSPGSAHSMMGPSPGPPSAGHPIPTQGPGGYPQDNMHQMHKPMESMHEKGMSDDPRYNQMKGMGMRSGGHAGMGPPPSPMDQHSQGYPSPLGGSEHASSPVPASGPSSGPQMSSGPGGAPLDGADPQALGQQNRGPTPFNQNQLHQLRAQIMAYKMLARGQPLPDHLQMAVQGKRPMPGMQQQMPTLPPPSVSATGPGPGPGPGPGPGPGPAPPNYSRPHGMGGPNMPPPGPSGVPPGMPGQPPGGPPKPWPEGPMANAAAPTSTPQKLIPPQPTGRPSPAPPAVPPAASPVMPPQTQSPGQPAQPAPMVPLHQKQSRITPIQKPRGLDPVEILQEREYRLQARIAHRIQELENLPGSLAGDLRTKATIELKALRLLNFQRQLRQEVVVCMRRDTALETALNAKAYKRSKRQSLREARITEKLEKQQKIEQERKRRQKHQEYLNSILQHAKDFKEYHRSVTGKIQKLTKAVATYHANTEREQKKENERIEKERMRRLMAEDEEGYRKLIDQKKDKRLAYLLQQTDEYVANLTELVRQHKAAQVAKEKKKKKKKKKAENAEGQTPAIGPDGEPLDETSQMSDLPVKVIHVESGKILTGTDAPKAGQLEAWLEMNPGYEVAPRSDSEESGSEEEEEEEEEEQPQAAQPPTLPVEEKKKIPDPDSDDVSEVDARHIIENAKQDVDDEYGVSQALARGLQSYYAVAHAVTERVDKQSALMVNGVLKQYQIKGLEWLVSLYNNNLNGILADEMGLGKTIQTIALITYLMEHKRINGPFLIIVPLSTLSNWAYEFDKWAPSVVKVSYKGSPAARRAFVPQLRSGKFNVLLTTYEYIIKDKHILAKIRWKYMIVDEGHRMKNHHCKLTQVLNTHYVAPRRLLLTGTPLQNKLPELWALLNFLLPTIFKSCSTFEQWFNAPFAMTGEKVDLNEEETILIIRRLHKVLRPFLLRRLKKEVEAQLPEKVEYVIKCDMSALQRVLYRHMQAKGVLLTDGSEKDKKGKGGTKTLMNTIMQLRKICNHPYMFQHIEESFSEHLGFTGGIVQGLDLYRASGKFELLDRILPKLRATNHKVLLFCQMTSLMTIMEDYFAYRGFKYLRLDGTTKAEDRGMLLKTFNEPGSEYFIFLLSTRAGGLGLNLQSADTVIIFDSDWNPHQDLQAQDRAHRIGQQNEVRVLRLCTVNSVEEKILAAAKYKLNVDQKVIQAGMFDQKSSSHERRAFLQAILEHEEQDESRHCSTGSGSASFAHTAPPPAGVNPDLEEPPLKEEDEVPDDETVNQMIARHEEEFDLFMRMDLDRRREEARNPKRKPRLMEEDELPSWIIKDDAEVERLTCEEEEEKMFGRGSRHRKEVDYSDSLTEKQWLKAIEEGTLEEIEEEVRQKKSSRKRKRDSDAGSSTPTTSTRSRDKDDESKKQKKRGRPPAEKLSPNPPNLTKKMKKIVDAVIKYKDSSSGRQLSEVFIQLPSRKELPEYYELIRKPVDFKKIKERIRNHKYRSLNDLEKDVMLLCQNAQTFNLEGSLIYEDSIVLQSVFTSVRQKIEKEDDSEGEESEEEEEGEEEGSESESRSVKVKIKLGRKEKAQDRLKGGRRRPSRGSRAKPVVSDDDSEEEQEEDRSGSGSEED
Summary of the method: as §1

SMILES | DC50 [1] [µM] | Dmax [1] [%] | DC50 [2] [µM] | Dmax [2] [%]
CCC1Nc2nnc(-c3ccccc3O)cc2N2CCN(CC3CCN(CC4CCN(c5ccc6c(c5)C(=O)N(C5CCC(=O)NC5=O)C6=O)CC4)CC3)CC12 (stereo not shown) [Example 128, 2-(2,6-dioxopiperidin-3-yl)-5-(4-((4-((6-ethyl-2-(2-hydroxyphenyl)-5,6,6a,7,9,10-hexahydro-8H-pyrazino[1′,2′:4,5]pyrazino[2,3-c]pyridazin-8-yl)methyl)piperidin-1-yl)methyl)piperidin-1-yl)isoindoline-1,3-dione] | < 0.01 | > 85 | < 0.01 | > 85
O=C1CCC(N2C(=O)c3ccc(N4C[C@H]5CC(N6CCC(CN7CCN8c9cc(-c%10ccccc%10O)nnc9NC[C@H]8C7)CC6)[C@H]5C4)cc3C2=O)C(=O)N1 (stereo partly drawn) [Example 190, 2-(2,6-dioxopiperidin-3-yl)-5-[(1S,5R)-6-[4-[[(10S)-4-(2-hydroxyphenyl)-1,5,6,8,12-pentazatricyclo[8.4.0.02,7]tetradeca-2(7),3,5-trien-12-yl]methyl]piperidin-1-yl]-3-azabicyclo[3.2.0]heptan-3-yl]isoindole-1,3-dione] | < 0.01 | 75 to 85 | < 0.01 | 75 to 85
O=C1CCC(N2Cc3cc(CN4CCC(CCCN5CCC(N6CCN7c8cc(-c9ccccc9O)nnc8NC[C@H]7C6)CC5)CC4)ccc3C2=O)C(=O)N1 (stereo partly drawn) [Example 65, 3-(5-((4-(3-(4-((S)-2-(2-hydroxyphenyl)-5,6,6a,7,9,10-hexahydro-8H-pyrazino[1′,2′:4,5]pyrazino[2,3-c]pyridazin-8-yl)piperidin-1-yl)propyl)piperidin-1-yl)methyl)-1-oxoisoindolin-2-yl)piperidine-2,6-dione] | < 0.01 | > 85 | < 0.01 | > 85
O=C1CCC(N2C(=O)c3cccc(NCCCN4CCC(N5CCN6c7cc(-c8ccccc8O)nnc7NC[C@H]6C5)CC4)c3C2=O)C(=O)N1 (stereo partly drawn) [Example 70, 2-(2,6-dioxopiperidin-3-yl)-4-((3-(4-((S)-2-(2-hydroxyphenyl)-5,6,6a,7,9,10-hexahydro-8H-pyrazino[1′,2′:4,5]pyrazino[2,3-c]pyridazin-8-yl)piperidin-1-yl)propyl)amino)isoindoline-1,3-dione] | < 0.01 | > 85 | < 0.01 | > 85
CC1CC(CN2CCN3c4cc(-c5ccccc5O)nnc4NC[C@H]3C2)CCN1CC1CCN(c2ccc3c(c2)C(=O)N(C2CCC(=O)NC2=O)C3=O)CC1 (stereo partly drawn) [Example 162, 2-(2,6-dioxopiperidin-3-yl)-5-[4-[[4-[[(10S)-4-(2-hydroxyphenyl)-1,5,6,8,12-pentazatricyclo[8.4.0.02,7]tetradeca-2,4,6-trien-12-yl]methyl]-2-methylpiperidine-1-yl]methyl]piperidin-1-yl] isoindole-1,3-dione] | < 0.01 | > 85 | < 0.01 | > 85
O=C1CCC(N2C(=O)c3ccc(N4CCC(CN5CCC(CN6CCN7c8cc(-c9ccccc9O)nnc8NC[C@H]7C6)CC5)CC4)cc3C2=O)C(=O)N1COC(=O)C1(O)CC1 (stereo partly drawn) [Example 130, (3-(5-(4-((4-(((S)-2-(2-hydroxyphenyl)-5,6,6a,7,9,10-hexahydro-8H-pyrazino[1′,2′:4,5]pyrazino[2,3-c]pyridazin-8-yl)methyl)piperidin-1-yl)methyl)piperidin-1-yl)-1,3-dioxoisoindolin-2-yl)-2,6-dioxopiperidin-1-yl)methyl-1-hydroxycyclopropane-1-carboxylate] | < 0.01 | > 85 | < 0.01 | > 85
O=C1CCC(N2Cc3ccc(N4CCC(CN5CCC(F)(CN6CCN7c8cc(-c9ccccc9O)nnc8NC[C@H]7C6)CC5)CC4)cc3C2=O)C(=O)N1 (stereo partly drawn) [Example 233, 3-(6-(4-((4-fluoro-4-(((S)-2-(2-hydroxyphenyl)-5,6,6a,7,9,10-hexahydro-8H-pyrazino[1′,2′:4,5]pyrazino[2,3-c]pyridazin-8-yl)methyl)piperidin-1-yl)methyl)piperidin-1-yl)-1-oxoisoindolin-2-yl)piperidine-2,6-dione] | < 0.01 | > 85 | < 0.01 | > 85
O=C1CCC(N2C(=O)c3ccc(N4CCN(CCN5CCO[C@H](CN6CCN7c8cc(-c9ccccc9O)nnc8NC[C@H]7C6)C5)CC4)cc3C2=O)C(=O)N1 (stereo partly drawn) [Example 159, 2-(2,6-dioxopiperidin-3-yl)-5-(4-(2-((R)-2-(((S)-2-(2-hydroxyphenyl)-5,6,6a,7,9,10-hexahydro-8H-pyrazino[1′,2′:4,5]pyrazino[2,3-c]pyridazin-8-yl)methyl)morpholino)ethyl)piperazin-1-yl)isoindoline-1,3-dione] | < 0.01 | > 85 | < 0.01 | 50 to 75

The remaining lines, values ahead:

DC50 [1] [µM] | Dmax [1] [%] | DC50 [2] [µM] | Dmax [2] [%] | SMILES
< 0.01 | > 85 | < 0.01 | > 85 | O=C1CCC(N2C(=O)c3ccc(N4CCC(CNC5CCC(CN6CCN7c8cc(-c9ccccc9O)nnc8NC[C@H]7C6)CC5)CC4)cc3C2=O)C(=O)N1 (stereo partly drawn) [Example 167, 2-(2,6-dioxopiperidin-3-yl)-5-[4-[[[4-[[(10S)-4-(2-hydroxyphenyl)-1,5,6,8,12-pentazatricyclo[8.4.0.02,7]tetradeca-2,4,6-trien-12-yl]methyl]cyclohexyl]amino]methyl]piperidin-1-yl] isoindole-1,3-dione]
< 0.01 | 75 to 85 | < 0.01 | 50 to 75 | O=C1CCC(N2C(=O)c3ccc(N4CC[C@H](CN5CCC(CN6CCN7c8cc(-c9ccccc9O)nnc8NC[C@H]7C6)CC5)[C@H](F)C4)cc3C2=O)C(=O)N1 (stereo partly drawn) [Example 185, 2-(2,6-dioxopiperidin-3-yl)-5-[(3S,4R)-3-fluoro-4-[[4-[[(10S)-4-(2-hydroxyphenyl)-1,5,6,8,12-pentazatricyclo[8.4.0.02,7]tetradeca-2(7),3,5-trien-12-yl]methyl]piperidin-1-yl]methyl]piperidin-1-yl]isoindole-1,3-dione]
< 0.01 | 50 to 75 | 0.1 to 1 | ≤ 50 | CN(CCN1CCC(C(=O)N2CCN3c4cc(-c5ccccc5O)nnc4NC[C@H]3C2)CC1)c1ccc2c(c1)C(=O)N(C1CCC(=O)NC1=O)C2=O (stereo partly drawn) [Example 222, 2-(2,6-dioxopiperidin-3-yl)-5-((2-(4-((S)-2-(2-hydroxyphenyl)-6,6a,7,8,9,10-hexahydro-5H-pyrazino[1′,2′:4,5]pyrazino[2,3-c]pyridazine-8-carbonyl)piperidin-1-yl)ethyl)(methyl)amino) isoindoline-1,3-dione]
< 0.01 | > 85 | 0.01 to 0.1 | 75 to 85 | C[C@H]1CN2c3cc(-c4ccccc4O)nnc3NC[C@H]2CN1C(=O)N1CCN(CC2CCN(c3ccc4c(c3)C(=O)N(C3CCC(=O)NC3=O)C4)CC2)CC1 (stereo partly drawn) [Example 99, 3-(6-(4-((4-((6aS,9S)-2-(2-hydroxyphenyl)-9-methyl-6,6a,7,8,9,10-hexahydro-5H-pyrazino[1′,2′:4,5]pyrazino[2,3-c]pyridazine-8-carbonyl)piperazin-1-yl)methyl)piperidin-1-yl)-1-oxoisoindolin-2-yl)piperidine-2,6-dione]
< 0.01 | 50 to 75 | 0.01 to 0.1 | ≤ 50 | O=C1CCC(N2Cc3ccc(N4CCC(CN5C[C@@H]6[C@H](C5)[C@H]6C(=O)N5CCN6c7cc(-c8ccccc8O)nnc7NC[C@H]6C5)CC4)cc3C2=O)C(=O)N1 (stereo partly drawn) [Example 96, 3-(6-(4-(((1R,5S,6r)-6-((S)-2-(2-hydroxyphenyl)-6,6a,7,8,9,10-hexahydro-5H-pyrazino[1′,2′:4,5]pyrazino[2,3-c]pyridazine-8-carbonyl)-3-azabicyclo[3.1.0]hexan-3-yl)methyl)piperidin-1-yl)-1-oxoisoindolin-2-yl)piperidine-2,6-dione]
< 0.01 | ≤ 50 | 0.01 to 0.1 | ≤ 50 | O=C1CCC(N2C(=O)c3cc(F)c(N4CCN(CC5CCN(C(=O)N6CCN7c8cc(-c9ccccc9O)nnc8NC[C@H]7C6)CC5)CC4)cc3C2=O)C(=O)N1 (stereo partly drawn) [Example 263, 2-(2,6-dioxopiperidin-3-yl)-5-fluoro-6-(4-((1-((S)-2-(2-hydroxyphenyl)-6,6a,7,8,9,10-hexahydro-5H-pyrazino[1′,2′:4,5]pyrazino[2,3-c]pyridazine-8-carbonyl)piperidin-4-yl)methyl)piperazin-1-yl)isoindoline-1,3-dione]
< 0.01 | > 85 | < 0.01 | > 85 | O=C1CCC(N2C(=O)c3ccc(N4CCC(CN5CCC(CN6CCN7c8cc(-c9ccccc9O)nnc8NC[C@H]7C6)CC5)CC4)cc3C2=O)C(=O)N1 (stereo partly drawn) [Example 31, 2-(2,6-dioxopiperidin-3-yl)-5-(4-((4-(((S)-2-(2-hydroxyphenyl)-5,6,6a,7,9,10-hexahydro-8H-pyrazino[1′,2′:4,5]pyrazino[2,3-c]pyridazin-8-yl)methyl)piperidin-1-yl)methyl)piperidin-1-yl)isoindoline-1,3-dione]
< 0.01 | > 85 | < 0.01 | 75 to 85 | O=C1CCC(N2Cc3cc(OCCN4CCC(N5CCN6c7cc(-c8ccccc8O)nnc7NC[C@H]6C5)CC4)ccc3C2=O)C(=O)N1 (stereo partly shown) [Example 238]
